Test results: publication PMC10465358 (Nature Microbiology, 2023)

How the values were obtained:
P. bivia PulA = target: T1, P. bivia PulA (Prevotella bivia, UniProt I4Z8K5); test: BODIPY fluorescent starch amylase assay with purified enzyme; assay type: biochemical
T1 construct: gene PrebiDRAFT_0808
Text: BODIPY fluorescent starch amylase assay with purified enzyme on P. bivia PulA | Acarbose inhibited G. vaginalis PulA, P. bivia PulA and P. bivia GH13 enzymes

G. vaginalis PulA = target: T2, G. vaginalis PulA (Gardnerella vaginalis, UniProt A0ACD7VVB6); test: fluorescent (BODIPY) starch hydrolysis; assay type: biochemical; conditions: BODIPY starch substrate; 15 min preincubation; 37 °C; pH not stated; error is 95% confidence interval
T2 construct: gene GAVG_1021; signal peptide removed, N-terminal His6 (pET28a, pETpullGV), E. coli ArcticExpress (DE3), 219 kDa, two alpha-amylase (GH13) domains (D233, D1317)
Text: fluorescent (BODIPY) starch hydrolysis on G. vaginalis PulA | Acarbose inhibited G. vaginalis PulA, P. bivia PulA and P. bivia GH13 enzymes

T1 sequence (I4Z8K5 23-637 limits assumed): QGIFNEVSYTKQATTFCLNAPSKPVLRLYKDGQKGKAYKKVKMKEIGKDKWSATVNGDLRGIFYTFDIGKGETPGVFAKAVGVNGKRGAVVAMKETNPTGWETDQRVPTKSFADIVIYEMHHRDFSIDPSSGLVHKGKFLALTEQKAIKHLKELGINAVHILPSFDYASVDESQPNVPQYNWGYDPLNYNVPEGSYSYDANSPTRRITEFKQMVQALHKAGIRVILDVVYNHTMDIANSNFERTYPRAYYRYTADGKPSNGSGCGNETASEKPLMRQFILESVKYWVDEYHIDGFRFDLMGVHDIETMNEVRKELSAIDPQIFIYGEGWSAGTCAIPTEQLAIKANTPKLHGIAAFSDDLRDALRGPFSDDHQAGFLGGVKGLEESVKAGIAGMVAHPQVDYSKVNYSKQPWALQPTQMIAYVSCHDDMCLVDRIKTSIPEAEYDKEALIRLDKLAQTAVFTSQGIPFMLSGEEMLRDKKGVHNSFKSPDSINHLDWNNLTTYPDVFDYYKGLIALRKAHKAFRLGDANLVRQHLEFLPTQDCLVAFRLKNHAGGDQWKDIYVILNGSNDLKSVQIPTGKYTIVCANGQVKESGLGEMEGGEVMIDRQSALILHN
T2 sequence (A0ACD7VVB6 34-2012): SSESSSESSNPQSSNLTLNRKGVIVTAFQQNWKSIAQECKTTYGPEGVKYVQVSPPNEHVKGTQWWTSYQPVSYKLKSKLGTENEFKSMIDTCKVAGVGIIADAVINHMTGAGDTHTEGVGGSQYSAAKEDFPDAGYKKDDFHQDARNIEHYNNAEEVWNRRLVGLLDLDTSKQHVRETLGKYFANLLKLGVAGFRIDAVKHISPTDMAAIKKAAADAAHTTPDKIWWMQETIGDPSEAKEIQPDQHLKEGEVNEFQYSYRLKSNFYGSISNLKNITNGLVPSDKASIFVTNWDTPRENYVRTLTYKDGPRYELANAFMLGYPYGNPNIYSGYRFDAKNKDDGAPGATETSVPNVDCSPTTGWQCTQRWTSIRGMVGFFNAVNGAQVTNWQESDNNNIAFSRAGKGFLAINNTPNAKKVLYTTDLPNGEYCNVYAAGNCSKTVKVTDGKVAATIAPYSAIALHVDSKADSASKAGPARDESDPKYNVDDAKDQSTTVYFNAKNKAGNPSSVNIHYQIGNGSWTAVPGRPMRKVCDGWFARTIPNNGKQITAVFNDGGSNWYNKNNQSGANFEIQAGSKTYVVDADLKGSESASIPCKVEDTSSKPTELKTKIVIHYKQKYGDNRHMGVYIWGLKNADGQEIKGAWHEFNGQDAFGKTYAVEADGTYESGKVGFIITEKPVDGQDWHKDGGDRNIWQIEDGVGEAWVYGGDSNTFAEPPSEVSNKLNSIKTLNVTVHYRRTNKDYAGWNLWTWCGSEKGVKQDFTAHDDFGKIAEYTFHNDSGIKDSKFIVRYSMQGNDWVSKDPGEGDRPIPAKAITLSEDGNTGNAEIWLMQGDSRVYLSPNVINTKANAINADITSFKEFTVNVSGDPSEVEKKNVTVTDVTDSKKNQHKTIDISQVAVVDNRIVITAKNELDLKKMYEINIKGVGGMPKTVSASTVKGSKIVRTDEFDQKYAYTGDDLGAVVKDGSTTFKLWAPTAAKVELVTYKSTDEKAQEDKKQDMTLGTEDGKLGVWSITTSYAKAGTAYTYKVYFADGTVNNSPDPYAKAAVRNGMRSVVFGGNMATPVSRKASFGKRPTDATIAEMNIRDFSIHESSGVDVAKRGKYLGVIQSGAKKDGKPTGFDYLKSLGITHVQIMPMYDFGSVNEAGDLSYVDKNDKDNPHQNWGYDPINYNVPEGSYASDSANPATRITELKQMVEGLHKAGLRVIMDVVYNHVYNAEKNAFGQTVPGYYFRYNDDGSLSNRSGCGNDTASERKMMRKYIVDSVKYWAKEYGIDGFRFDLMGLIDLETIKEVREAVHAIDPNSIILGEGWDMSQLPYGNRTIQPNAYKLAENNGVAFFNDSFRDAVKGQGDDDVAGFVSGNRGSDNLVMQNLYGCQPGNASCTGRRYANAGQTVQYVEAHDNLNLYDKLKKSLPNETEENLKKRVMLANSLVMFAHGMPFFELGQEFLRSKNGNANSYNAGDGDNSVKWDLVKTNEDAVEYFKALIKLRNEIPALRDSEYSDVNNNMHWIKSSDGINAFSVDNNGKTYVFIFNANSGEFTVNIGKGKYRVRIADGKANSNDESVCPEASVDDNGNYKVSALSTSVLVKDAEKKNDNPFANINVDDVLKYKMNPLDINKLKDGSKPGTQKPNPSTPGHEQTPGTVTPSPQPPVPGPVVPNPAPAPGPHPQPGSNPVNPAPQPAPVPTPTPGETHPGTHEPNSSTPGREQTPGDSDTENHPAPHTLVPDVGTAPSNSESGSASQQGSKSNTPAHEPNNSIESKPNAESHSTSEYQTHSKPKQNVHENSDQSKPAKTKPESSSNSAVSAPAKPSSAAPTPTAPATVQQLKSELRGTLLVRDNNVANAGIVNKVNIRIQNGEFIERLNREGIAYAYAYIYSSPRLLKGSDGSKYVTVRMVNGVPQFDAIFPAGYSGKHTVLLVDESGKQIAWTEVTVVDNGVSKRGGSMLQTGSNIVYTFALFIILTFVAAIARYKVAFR

SMILES: C[C@H]1O[C@H](O[C@H]2[C@H](O)[C@@H](O)[C@@H](O[C@H]3[C@H](O)[C@@H](O)C(O)O[C@@H]3CO)O[C@@H]2CO)[C@H](O)[C@@H](O)[C@@H]1N[C@H]1C=C(CO)[C@@H](O)[C@H](O)[C@H]1O (some centres unmarked) [acarbose]
- IC50 (P. bivia PulA): 420 ± 90 µM
- IC50 (G. vaginalis PulA): 120 ± 30 µM
